Experimental data from article PMC6359144 (International Journal of Molecular Sciences, 2019).
Where two headings read alike, the source gives them in different places.

Experiments:
[1] = test system: HT-29 colon carcinoma cells; test: MTT assay, HT-29 colon carcinoma cells; format: cell-based, human; conditions: Homo sapiens, MTT
Description: (§1) HT-29 (ACC-299), HCT-116 (ACC-581) and DLD-1 (ACC-278) colon carcinoma, MCF-7 (ACC-115) breast carcinoma, KB-V1 (ACC-149), 518A2 (Department of Radiotherapy and Radiobiology, University Hospital Vienna) melanoma and Ea.Hy926 (ATCC no. CRL-2922) HUVEC derived endothelial hybrid cells line were grown in Dulbecco’s Modified Eagle Medium (DMEM; Biochrom), high glucose supplemented with 10% (v/v) fetal bovine serum (FBS; Biochrom.) and 1% (v/v) Antibiotic-Antimycotic solution (anti-anti; Thermo Scientific). HDFa human dermal fibroblasts (ATCC: PCS-201-012™) were grown in DMEM supplemented with 10% FBS, 1% anti-anti and 2 mM glutamine. The cells were incubated at 37 °C, 5% CO2, 95% humidified atmosphere. By repeated addition of topotecan or vinblastine at the maximum tolerated dose to the cell medium of MCF-7 and KB-V1 cells, the cells were rendered multidrug-resistant, indicated as MCF-7^Topo and KB-V1^Vbl, respectively. They were serially passaged following trypsinization by using 0.05% trypsin/0.02% EDTA (Biochrom). Mycoplasma contamination was routinely monitored, and only mycoplasma–free cultures were used.
(§2) MTT [3-(4,5-dimethylthiazol-2-yl)-2,5-diphenyltetrazolium bromide] (ABCR) was used to determine the cytotoxicity of test compounds as previously described. Briefly, HDFa human dermal fibroblasts and Ea.Hy926 endothelial hybrid cells (both 1 × 10^5 cells/mL, 100 µL/well), 518A2 melanoma, KB-V1^Vbl cervix carcinoma, MCF-7^Topo breast carcinoma, HT-29, DLD-1 and HCT-116 colon carcinoma (all 5 × 10^4 cells/mL, 100 µL/well) were grown in 96-well culture plates for 24 h. Then, various concentrations of the test compounds were added and the cells were incubated for 24-72 h at 37 °C. After adding 12.5 µL of a 0.5% MTT solution in PBS (final concentration 0.05%) to cell medium, microplates were incubated for 2 h and subsequently swiftly turned to discard the medium. The precipitate of formazan crystals was then dissolved in a 10% solution of SDS in DMSO containing 0.6% acetic acid. To ensure complete dissolution of formazan, microplates were incubated for at least 4 h at 37 °C. Finally, the absorbance at λ = 570 nm (formazan) and 630 nm (background) was measured using a microplate reader (Tecan F200). All experiments were carried out in quadruplicate and the percentage of viable cells was calculated as the mean ± SD with controls set to 100%. Selected graphs of MTT assays can be found in the Supporting Information (Figure S8).

recombinant human HDAC6 = target: T1, recombinant human HDAC6 (Homo sapiens, UniProt Q9UBN7); test: HDAC6 inhibitor screening assay (fluorometric); format: biochemical; conditions: recombinant human HDAC6, mean ± SD of two experiments; read-out: HDAC inhibition IC50, HDAC6
T1 construct: purchased Biovision
T1 sequence (Q9UBN7 1-1215): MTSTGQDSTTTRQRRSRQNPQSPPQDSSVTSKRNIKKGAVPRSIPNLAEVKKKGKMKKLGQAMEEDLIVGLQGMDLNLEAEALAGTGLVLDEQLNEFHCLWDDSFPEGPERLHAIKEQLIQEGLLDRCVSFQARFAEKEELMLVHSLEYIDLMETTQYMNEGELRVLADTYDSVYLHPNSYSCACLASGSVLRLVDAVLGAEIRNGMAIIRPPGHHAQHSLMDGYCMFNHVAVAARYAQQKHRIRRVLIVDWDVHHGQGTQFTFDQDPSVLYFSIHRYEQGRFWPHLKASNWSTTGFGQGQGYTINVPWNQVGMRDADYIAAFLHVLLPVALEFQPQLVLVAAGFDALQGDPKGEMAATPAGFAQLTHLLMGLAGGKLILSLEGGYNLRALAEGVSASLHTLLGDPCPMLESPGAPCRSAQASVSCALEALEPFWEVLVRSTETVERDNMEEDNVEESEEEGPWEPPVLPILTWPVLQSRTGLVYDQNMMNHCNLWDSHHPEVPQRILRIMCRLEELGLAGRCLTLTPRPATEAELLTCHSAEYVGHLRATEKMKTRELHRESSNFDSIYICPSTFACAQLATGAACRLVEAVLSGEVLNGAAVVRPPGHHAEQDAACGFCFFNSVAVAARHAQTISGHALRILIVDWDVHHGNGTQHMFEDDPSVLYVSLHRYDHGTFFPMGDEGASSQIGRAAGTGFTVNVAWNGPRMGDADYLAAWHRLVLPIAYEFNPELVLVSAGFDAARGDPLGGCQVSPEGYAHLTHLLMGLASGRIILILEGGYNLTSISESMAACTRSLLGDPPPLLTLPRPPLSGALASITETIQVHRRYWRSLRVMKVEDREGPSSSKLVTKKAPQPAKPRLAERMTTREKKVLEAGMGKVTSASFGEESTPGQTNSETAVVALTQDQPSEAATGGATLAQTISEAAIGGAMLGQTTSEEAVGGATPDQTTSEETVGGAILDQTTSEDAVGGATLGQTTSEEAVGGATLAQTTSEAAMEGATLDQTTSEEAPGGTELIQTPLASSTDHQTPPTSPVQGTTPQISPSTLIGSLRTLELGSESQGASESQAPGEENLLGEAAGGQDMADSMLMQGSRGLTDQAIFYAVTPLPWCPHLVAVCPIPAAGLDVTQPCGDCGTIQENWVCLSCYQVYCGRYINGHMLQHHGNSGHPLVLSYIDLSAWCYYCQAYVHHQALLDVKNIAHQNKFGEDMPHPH
Description: The HDAC inhibitory potential of the novel compounds was determined by utilizing the deacetylase activity of recombinant human HDAC1 (HDAC1 Inhibitor Screening Assay Kit; Cayman Chemicals) or HDAC6 (HDAC6 Inhibitor Screening Kit (Fluorometric); Biovision) towards the corresponding synthetic acetylated-peptide substrates resulting in the release of a fluorescent product. The assays were performed according to manufacturer’s description of the in commercially available assay kits. […] The IC50 values were derived from dose-response curves and are expressed as the means ± SD of two independent experiments.

[2] = test system: Ea.Hy926 endothelial hybrid cells; test: MTT assay, Ea.Hy926 endothelial hybrid cells; format: cell-based; conditions: Homo sapiens, EA.hy 926, read-out: IC50 Ea.Hy926 (72 h)
Description: as §1, §2

[3] = HT-29, read-out: IC50 HT-29 (72 h), 72 h
[4] = HT-29, 24 h, read-out: IC50 HT-29 (24 h)

COc1ccc(-c2ocnc2-c2cc(Br)c(OC)c(OC)c2)cc1OCCCCCC(=O)NO [4f, N-Hydroxy-6-[1-methoxy-4-(4’-(3’’-bromo-4’’,5’’-dimethoxyphenyl)oxazol-5’-yl)-2-phenoxy]hexanamide]
IC50 [1, 3]: 14200 ± 1600 nM | IC50 [1, 4]: 6600 ± 600 nM | IC50 (recombinant human HDAC6): 320 ± 20 nM | IC50 [2]: 410 ± 40 nM

COc1ccc(-c2ocnc2-c2cc(Br)c(OC)c(OC)c2)cc1OCCCCC(=O)NO [4e, N-Hydroxy-5-[1-methoxy-4-(4’-(3’’-bromo-4’’,5’’-dimethoxyphenyl)oxazol-5’-yl)-2-phenoxy]pentanamide]
IC50 [1, 3]: 1900 ± 200 nM | IC50 [1, 4]: 2100 ± 600 nM | IC50 (recombinant human HDAC6): 3500 ± 100 nM | IC50 [2]: 660 ± 10 nM

COc1ccc(-c2ocnc2-c2cc(Br)c(OC)c(OC)c2)cc1OCCCC(=O)NO [4d, N-Hydroxy-4-[1-methoxy-4-(4’-(3’’-bromo-4’’,5’’-dimethoxyphenyl)oxazol-5’-yl)-2-phenoxy]butanamide]
IC50 [1, 3]: 1400 ± 200 nM | IC50 [1, 4]: 1300 ± 300 nM | IC50 (recombinant human HDAC6): 13800 ± 200 nM | IC50 [2]: 18 ± 4 nM
